We go through 11 molecules from US9868727B2, “Factor XIa inhibitors” (Merck Sharp & Dohme Corp., priority 2014, dated 2018).

In assay [1] the target is T1, purified Human plasma kallikrein (Homo sapiens, UniProt P03952).
T1 construct: yields a heavy chain (371 amino acids) and a light chain (248 amino acids); purchased Enzyme Research Laboratories
Kind of assay: Kallikrein Assay. Format: biochemical. The following applies: Plasma Kallekrein IC50; fluorogenic substrate Acetyl-K-P-R-AFC, 0.5 nM enzyme, pH 7.4; read-out: PK IC50.

For assay [2], the target named is T2, purified human Factor XIa (Homo sapiens, UniProt P03951).
T2 construct: purified human Factor XIa; purchased Sekisui Diagnostics
T2 sequence (P03951 388-625 limits assumed): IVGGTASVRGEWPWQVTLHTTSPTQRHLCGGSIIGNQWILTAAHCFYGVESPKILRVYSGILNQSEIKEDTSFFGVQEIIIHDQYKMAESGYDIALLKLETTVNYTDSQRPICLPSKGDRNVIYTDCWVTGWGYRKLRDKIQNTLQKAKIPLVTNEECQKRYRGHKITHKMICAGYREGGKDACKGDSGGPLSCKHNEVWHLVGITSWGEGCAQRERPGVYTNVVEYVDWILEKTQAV
T2 sequence (P03951 19-387 partner limits assumed): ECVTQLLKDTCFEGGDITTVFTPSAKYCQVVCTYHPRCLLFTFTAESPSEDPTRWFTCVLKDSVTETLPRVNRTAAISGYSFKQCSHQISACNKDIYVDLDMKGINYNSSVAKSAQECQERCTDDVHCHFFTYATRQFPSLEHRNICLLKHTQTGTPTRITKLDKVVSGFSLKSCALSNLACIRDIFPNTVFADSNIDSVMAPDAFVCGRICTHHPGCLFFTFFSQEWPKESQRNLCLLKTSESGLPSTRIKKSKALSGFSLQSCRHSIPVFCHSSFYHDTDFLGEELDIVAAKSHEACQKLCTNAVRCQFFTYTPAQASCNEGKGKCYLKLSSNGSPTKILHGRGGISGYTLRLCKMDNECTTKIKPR
Briefly: Factor XIa Assay. It is filed as biochemical. As to conditions: fluorogenic substrate Z-Gly-Pro-Arg-AFC 100 μM, 40 pM enzyme, pH 7.4, read-out: F11a IC50.

T1 sequence (P03952 391-638 limits assumed): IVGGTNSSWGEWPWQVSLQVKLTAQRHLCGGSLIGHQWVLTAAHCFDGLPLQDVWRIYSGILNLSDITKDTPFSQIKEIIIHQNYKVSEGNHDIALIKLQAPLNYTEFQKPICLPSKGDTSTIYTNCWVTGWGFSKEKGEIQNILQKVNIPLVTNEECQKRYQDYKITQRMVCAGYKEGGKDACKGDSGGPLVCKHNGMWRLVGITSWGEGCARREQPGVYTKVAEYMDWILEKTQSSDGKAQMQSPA
T1 sequence (P03952 20-390 partner limits assumed): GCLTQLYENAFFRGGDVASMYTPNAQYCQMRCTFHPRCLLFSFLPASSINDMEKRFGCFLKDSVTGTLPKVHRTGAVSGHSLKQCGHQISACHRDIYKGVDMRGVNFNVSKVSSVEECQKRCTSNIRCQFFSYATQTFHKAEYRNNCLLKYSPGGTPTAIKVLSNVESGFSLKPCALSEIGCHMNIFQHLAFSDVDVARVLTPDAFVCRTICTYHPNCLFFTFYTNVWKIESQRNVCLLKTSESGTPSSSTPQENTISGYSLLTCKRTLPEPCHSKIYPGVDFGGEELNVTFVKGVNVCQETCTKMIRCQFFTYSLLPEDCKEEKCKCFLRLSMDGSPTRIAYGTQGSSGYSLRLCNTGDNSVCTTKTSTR

As usually defined, the IC50 is the concentration at which inhibition is half-maximal. On to `NC(=O)c1scc(-c2cnc(C(CC3CC3)c3ccc(-c4cc(Cl)ccc4-n4cnnn4)c[n+]3[O-])[nH]2)c1F` (single isomer, unassigned) [Example 60, 2-(1-(5-(5-carbamoyl-4-fluorothiophen-3-yl)-1H-imidazol-2-yl)-2-cyclopropylethyl)-5-(5-chloro-2-(1H-tetrazol-1-yl)phenyl)pyridine 1-oxide], for which the figures for the IC50 in assay [1] and in assay [2] were 76 nM and 4.9 nM, respectively.
For the molecule `COC(=O)c1scc(-c2cnc(C(CC3CC3)c3ccc(-c4cc(Cl)ccc4-n4cnnn4)c[n+]3[O-])[nH]2)c1F` (single isomer, unassigned) [Example 61, Methyl 4-[2-(1-{5-[5-chloro-2-(1H-tetrazol-1-yl)phenyl]-1-oxidopyridin-2-yl}-2-cyclopropylethyl)-1H-imidazol-5-yl]-3-fluorothiophene-2-carboxylate], the IC50 came to 343 nM in assay [1] and 53 nM in assay [2].
In the same order, the values of `COC(=O)Nc1ccc(-c2cnc(C(CC3CC3)c3ccc(-c4cc(Cl)ccc4-c4cnco4)c[n+]3[O-])[nH]2)cc1` (single isomer, unassigned) [Example 69] are 358 nM and 48 nM.
In the same order, the values of `COC(=O)Nc1ccc(-c2[nH]c(C(CC3CC3)c3ccc(-c4cc(Cl)ccc4-n4cnnn4)c[n+]3[O-])nc2C)cc1` (single isomer, unassigned) [Example 76, methyl {4-[2-(1-{5-[5-chloro-2-(1H-tetrazol-1-yl)phenyl]-1-oxidopyridin-2-yl}-2-cyclopropylethyl)-4-methyl-1H-imidazol-5-yl]phenyl}carbamate] are 802 nM and 36.8 nM.
As for `COC(=O)Nc1ccc(-c2[nH]c(C(CC3CC3)c3ccc(-c4cc(Cl)ccc4-n4cnnn4)c[n+]3[O-])nc2C)cc1` (single isomer, unassigned) [Example 77, methyl {4-[2-(1-{5-[5-chloro-2-(1H-tetrazol-1-yl)phenyl]-1-oxidopyridin-2-yl}-2-cyclopropylethyl)-4-methyl-1H-imidazol-5-yl]phenyl}carbamate], the IC50 in assay [1] was found to be 48 nM; in assay [2], 1.52 nM.
In the same order, the values of `COC(=O)Nc1ccc(-c2[nH]c(C(CC3CC3)c3ccc(-c4cc(Cl)ccc4-n4cnnn4)c[n+]3[O-])nc2Cl)cc1` (single isomer, unassigned) [Example 79, 5-(5-chloro-2-(1H-tetrazol-1-yl)phenyl)-2-(1-(4-chloro-5-(4-((methoxycarbonyl)amino)phenyl)-1H-imidazol-2-yl)-2-cyclopropylethyl)pyridine 1-oxide] are 24 nM and 0.5 nM.
On to `COC(=O)Nc1ccc(-c2nc([C@H](Cc3ccccc3)c3ccc(-c4cc(Cl)ccc4-n4cnnn4)c[n+]3[O-])[nH]c2Cl)cc1` [Example 1, (R) 5-(5-Chloro-2-(1H-tetrazol-1-yl)phenyl)-2-(1-(5-chloro-4-(4-((methoxycarbonyl)amino)phenyl)-1H-imidazol-2-yl)-2-phenylethyl)pyridine 1-oxide], for which the IC50 was found to be 1.52 nM in assay [1] and 1.34 nM in assay [2].
In the same order, the values of `COC(=O)Nc1ccc(-c2nc([C@@H](Cc3ccccc3)c3ccc(-c4cc(Cl)ccc4-n4cnnn4)c[n+]3[O-])[nH]c2Cl)cc1` [Example 2, (S) 5-(5-Chloro-2-(1H-tetrazol-1-yl)phenyl)-2-(1-(5-chloro-4-(4-((methoxycarbonyl)amino)phenyl)-1H-imidazol-2-yl)-2-phenylethyl)pyridine 1-oxide] are 76.1 nM and 2.82 nM.
Take `COC(=O)Nc1ccc(-c2cnc([C@H](Cc3ccccc3)c3ccc(-c4c(-n5cnnn5)ccc(Cl)c4F)c[n+]3[O-])[nH]2)cc1` [Example 23]: the IC50 came out at 1.54 nM in assay [1] and 1.04 nM in assay [2].
For the molecule `COC(=O)Nc1ccc(-c2cnc([C@@H](Cc3ccccc3)c3ccc(-c4c(-n5cnnn5)ccc(Cl)c4F)c[n+]3[O-])[nH]2)cc1` [Example 24], the half-maximal inhibitory concentration (IC50) in assay [1] is 88.7 nM; in assay [2], 2.36 nM.
As to `COC(=O)Nc1ccc(-c2cnc([C@H](Cc3ccccc3)c3ccc(-c4cc(Cl)ccc4-c4cnco4)c[n+]3[O-])[nH]2)cc1` [Example 25], the IC50 turned out to be 24.1 nM in assay [1] and 3.31 nM in assay [2].
